This note sets out measurements from article PMC4780864, “Family-wide Structural Analysis of Human Numb-Associated Protein Kinases” (Structure(London, England:1993), 2016).

Assay [1] has as its target T1, BIKE (Homo sapiens, UniProt Q9NSY1, K320A/K321A).
T1 construct: gene BMP2K; BIKE38–345 (kinase domain)
Put plainly: co-crystal structure ([…] Å); ITC; thermal shift. Type of assay: binding.

In assay [2] the target is T2, BIKE (Homo sapiens, UniProt Q9NSY1).
T2 construct: gene BMP2K; catalytic domain-containing construct
T2 sequence (Q9NSY1 whole entry, the tested form may be a part): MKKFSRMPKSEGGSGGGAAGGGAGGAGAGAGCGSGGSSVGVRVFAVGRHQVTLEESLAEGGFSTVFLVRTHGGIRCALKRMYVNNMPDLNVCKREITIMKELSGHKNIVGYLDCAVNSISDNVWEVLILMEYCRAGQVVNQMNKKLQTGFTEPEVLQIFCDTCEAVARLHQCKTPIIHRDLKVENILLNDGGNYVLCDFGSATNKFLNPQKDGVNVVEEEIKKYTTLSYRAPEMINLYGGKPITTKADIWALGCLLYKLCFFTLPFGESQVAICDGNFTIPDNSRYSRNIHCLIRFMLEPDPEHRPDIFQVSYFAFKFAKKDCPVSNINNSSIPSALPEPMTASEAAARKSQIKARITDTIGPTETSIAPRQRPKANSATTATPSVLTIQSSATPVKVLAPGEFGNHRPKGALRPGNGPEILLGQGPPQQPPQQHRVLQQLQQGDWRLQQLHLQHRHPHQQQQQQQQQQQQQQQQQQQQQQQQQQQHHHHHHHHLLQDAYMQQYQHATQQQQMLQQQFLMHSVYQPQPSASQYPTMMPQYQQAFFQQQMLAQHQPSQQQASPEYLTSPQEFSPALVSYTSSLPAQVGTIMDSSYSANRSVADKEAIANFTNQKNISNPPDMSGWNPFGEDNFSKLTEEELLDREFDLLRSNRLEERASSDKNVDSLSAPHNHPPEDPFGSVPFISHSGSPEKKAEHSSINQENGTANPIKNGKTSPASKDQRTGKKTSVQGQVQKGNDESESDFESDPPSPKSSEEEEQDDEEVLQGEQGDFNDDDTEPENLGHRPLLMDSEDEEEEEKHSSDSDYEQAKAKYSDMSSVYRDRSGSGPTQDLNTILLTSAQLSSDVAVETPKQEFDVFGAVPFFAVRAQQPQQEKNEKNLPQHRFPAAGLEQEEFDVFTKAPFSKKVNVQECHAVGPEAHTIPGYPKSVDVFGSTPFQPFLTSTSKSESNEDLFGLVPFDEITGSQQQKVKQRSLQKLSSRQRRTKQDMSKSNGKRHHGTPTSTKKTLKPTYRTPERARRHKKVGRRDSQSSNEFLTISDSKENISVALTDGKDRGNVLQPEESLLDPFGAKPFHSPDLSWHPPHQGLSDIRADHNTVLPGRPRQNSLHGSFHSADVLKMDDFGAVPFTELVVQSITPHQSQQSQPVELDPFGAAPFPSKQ
Put plainly: biochemical. The following applies: read-out: BIKE. On the set-up: Thermal shift assay (DSF, SYPRO Orange), 2 uM kinase domain, mean delta Tm of triplicates versus DMSO. On the procedure:
(§1) All measurements were performed in triplicate and mean values were reported for all compounds (Table S1). […] However, NAKs are often omitted from selectivity panels, including commercial screens.

A further assay concerns the target T3, GAK (Homo sapiens, UniProt O14976).
T3 construct: catalytic domain-containing construct
T3 sequence (O14976 1-1311): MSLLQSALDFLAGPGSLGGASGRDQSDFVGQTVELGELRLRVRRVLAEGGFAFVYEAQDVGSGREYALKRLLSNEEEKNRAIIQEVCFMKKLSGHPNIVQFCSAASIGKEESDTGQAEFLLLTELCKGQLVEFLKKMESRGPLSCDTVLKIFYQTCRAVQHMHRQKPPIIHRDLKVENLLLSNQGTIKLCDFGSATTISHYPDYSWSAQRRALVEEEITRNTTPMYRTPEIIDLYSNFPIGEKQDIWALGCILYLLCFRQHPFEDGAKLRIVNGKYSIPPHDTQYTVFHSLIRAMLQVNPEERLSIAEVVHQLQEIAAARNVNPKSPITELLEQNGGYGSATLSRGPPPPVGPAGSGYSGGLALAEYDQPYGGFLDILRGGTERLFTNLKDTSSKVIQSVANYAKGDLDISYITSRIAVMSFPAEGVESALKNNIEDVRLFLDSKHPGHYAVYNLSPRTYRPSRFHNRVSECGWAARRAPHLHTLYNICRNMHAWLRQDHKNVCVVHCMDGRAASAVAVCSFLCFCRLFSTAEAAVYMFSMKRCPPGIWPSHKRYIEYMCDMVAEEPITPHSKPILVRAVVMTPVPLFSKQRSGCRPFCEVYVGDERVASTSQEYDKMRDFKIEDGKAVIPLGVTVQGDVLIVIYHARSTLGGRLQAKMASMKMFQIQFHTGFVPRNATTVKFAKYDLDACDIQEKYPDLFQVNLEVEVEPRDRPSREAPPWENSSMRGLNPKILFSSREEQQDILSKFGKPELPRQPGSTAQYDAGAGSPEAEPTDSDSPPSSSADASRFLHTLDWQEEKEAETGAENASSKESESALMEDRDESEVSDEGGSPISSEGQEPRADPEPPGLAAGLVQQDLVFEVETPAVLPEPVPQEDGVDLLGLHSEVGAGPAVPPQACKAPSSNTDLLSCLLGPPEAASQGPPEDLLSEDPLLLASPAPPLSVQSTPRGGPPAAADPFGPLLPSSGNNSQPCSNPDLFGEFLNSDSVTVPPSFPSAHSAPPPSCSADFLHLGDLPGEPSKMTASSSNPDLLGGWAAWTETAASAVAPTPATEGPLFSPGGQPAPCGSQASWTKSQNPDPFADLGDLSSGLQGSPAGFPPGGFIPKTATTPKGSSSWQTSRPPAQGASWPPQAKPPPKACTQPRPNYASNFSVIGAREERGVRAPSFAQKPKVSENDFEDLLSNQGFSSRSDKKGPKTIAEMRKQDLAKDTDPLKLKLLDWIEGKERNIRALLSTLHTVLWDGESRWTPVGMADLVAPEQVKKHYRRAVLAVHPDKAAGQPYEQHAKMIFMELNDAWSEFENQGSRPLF
Put plainly: biochemical. On the set-up: Thermal shift assay (DSF, SYPRO Orange), 2 uM kinase domain, mean delta Tm of triplicates versus DMSO. The following applies: read-out: GAK. How it is done: as §1

The target of another assay is T4, MPSK1 (Homo sapiens, UniProt O75716).
T4 construct: gene STK16; catalytic domain-containing construct
T4 sequence (O75716 whole entry, the tested form may be a part): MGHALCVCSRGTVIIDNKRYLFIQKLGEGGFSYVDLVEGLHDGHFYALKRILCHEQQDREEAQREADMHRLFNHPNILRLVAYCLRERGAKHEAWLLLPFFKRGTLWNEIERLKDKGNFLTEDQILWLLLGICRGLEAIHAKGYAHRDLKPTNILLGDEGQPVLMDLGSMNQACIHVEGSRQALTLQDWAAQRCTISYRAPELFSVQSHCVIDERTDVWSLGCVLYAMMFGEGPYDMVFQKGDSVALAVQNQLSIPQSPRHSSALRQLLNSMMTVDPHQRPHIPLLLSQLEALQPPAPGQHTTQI
Put plainly: biochemical. On the set-up: Thermal shift assay (DSF, SYPRO Orange), 2 uM kinase domain, mean delta Tm of triplicates versus DMSO. The following applies: for ΔTm at 12.5 µM: read-out: MPSK1. On the procedure: as §1

Assay [3] has as its target T5, AAK1 (Homo sapiens, UniProt Q2M2I8). Put plainly: ITC; thermal shift. On the technique in general: Isothermal titration calorimetry measures the heat released or taken up as one component is titrated into another.
Assay [4] concerns the target T5, AAK1. Put plainly: biochemical. Further details: kinase domain; Thermal shift assay (DSF, SYPRO Orange), 2 uM kinase domain, mean delta Tm of triplicates versus DMSO. The following applies: for ΔTm at 12.5 µM: read-out: AAK1. On the procedure: as §1

T5 sequence (Q2M2I8 27-365 limits assumed): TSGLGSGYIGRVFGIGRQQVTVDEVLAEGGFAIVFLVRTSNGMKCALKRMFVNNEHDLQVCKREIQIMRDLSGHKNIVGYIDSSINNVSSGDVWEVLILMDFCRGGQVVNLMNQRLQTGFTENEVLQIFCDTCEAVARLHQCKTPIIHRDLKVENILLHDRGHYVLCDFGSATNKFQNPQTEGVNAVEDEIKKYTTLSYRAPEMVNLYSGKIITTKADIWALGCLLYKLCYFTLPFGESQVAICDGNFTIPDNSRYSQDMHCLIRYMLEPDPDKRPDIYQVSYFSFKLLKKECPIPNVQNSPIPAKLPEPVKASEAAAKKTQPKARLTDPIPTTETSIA
T1 sequence (Q9NSY1 38-345 K320A/K321A): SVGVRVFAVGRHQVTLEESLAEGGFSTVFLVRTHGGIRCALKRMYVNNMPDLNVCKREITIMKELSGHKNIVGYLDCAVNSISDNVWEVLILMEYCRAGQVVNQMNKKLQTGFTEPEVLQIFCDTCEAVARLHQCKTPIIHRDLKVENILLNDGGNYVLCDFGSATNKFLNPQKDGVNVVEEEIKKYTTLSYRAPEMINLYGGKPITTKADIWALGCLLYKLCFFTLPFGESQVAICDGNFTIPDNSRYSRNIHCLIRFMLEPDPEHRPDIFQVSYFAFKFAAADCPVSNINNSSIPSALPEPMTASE

As to `NC(=O)Nc1cc(-c2cccc(F)c2)sc1C(=O)N[C@H]1CCCNC1` [AZD7762], the Kd at BIKE [1] stood at 33.1 nM; on AAK1 [3], 36.5 nM. Also, the ΔTm at 12.5 µM at BIKE [2] came to 12.6 °C; at GAK it was 5.39 °C; on MPSK1 it was 3.46 °C; at AAK1 [4], 10.8 °C.
Turning to `COc1cc(Nc2ncc(F)c(Nc3ccc4c(n3)NC(=O)C(C)(C)O4)n2)cc(OC)c1OC` [Tamatinib], the ΔTm at 12.5 µM on BIKE [2] stood at 6.55 °C; at GAK it was 3.48 °C; at MPSK1 it was 14.1 °C; on AAK1 [4], 7 °C.
Taken in the same sequence, the figures for `COc1cc2c(N3CCN(C(=O)Nc4ccc(OC(C)C)cc4)CC3)ncnc2cc1OCCCN1CCCCC1` [Tandutinib] were 1.76 °C, 0.06 °C, 1.21 °C and 0.57 °C.
For `O=c1sn(-c2cccc3ccccc23)c(=O)n1Cc1ccccc1` [Tideglusib] the same measures were 0.245 °C, -0.487 °C, 0.443 °C and 0.24 °C.
Taken in the same sequence, the figures for `O=C1NC(=O)[C@@H](c2cn3c4c(cccc24)CCC3)[C@@H]1c1c[nH]c2ccccc12` [Tivantinib] were 0.697 °C, -0.823 °C, 0.87 °C and 0.46 °C.
With `COc1cc2nccc(Oc3ccc(NC(=O)Nc4cc(C)on4)c(Cl)c3)c2cc1OC` [Tivozanib], the ΔTm at 12.5 µM on BIKE [2] was found to be 3.87 °C; at GAK it was 6.98 °C; at MPSK1, 1.4 °C; at AAK1 [4], 3.15 °C.
Taken in the same sequence, the figures for `C[C@@H]1CCN(C(=O)CC#N)C[C@@H]1N(C)c1ncnc2[nH]ccc12` [Tofacitinib] were 2.18 °C, -0.58 °C, 1.35 °C and 0.68 °C.
For `CC(=O)Nc1cccc(-n2c(=O)n(C3CC3)c(=O)c3c(Nc4ccc(I)cc4F)n(C)c(=O)c(C)c32)c1` [Trametinib] the same measures were 0.423 °C, -0.66 °C, 0.827 °C and 0.367 °C.
Take `CN[C@@H]1C[C@H]2O[C@@](C)([C@@H]1OC)n1c3ccccc3c3c4c(c5c6ccccc6n2c5c31)C(=O)N[C@H]4O` [UCN-01]: the ΔTm at 12.5 µM on BIKE [2] was determined as 13.1 °C; at GAK it was 4.03 °C; at MPSK1, 4.49 °C; on AAK1 [4], 9.91 °C.
Turning to `Cc1cnc(Nc2ccc(F)cc2Cl)nc1-c1c[nH]c(C(=O)N[C@H](CO)c2cccc(Cl)c2)c1` [VX-11E], the ΔTm at 12.5 µM on BIKE [2] is 0.147 °C; at GAK, -1.45 °C; at MPSK1, 0.627 °C; at AAK1 [4], -0.203 °C.
With `COc1cc2/c(=N/c3ccc(Br)cc3F)nc[nH]c2cc1OCC1CCN(C)CC1` [Vandetanib], the ΔTm at 12.5 µM is 0.127 °C at BIKE [2], 1.75 °C at GAK, 1.1 °C at MPSK1 and 1.05 °C on AAK1 [4].
Regarding `Clc1ccc(Nc2nnc(Cc3ccncc3)c3ccccc23)cc1` [Vatalanib], the ΔTm at 12.5 µM on BIKE [2] is 0.423 °C; at GAK, 0.0567 °C; at MPSK1 it was 0.513 °C; on AAK1 [4], 0.303 °C.
Take `CCCS(=O)(=O)Nc1ccc(F)c(C(=O)c2c[nH]c3ncc(-c4ccc(Cl)cc4)cc23)c1F` [Vemurafenib]: the ΔTm at 12.5 µM came out at 4.24 °C at BIKE [2], 2.66 °C on GAK, 5.18 °C at MPSK1 and 2.06 °C on AAK1 [4].
For `CC[C@@H]1C(=O)N(C)c2cnc(Nc3ccc(C(=O)N[C@H]4CC[C@H](N5CCN(CC6CC6)CC5)CC4)cc3OC)nc2N1C(C)C` [Volasertib], the ΔTm at 12.5 µM came out at 3.48 °C on BIKE [2], 2.74 °C at GAK, 4.59 °C at MPSK1 and 3.06 °C at AAK1 [4].
Turning to `CCn1c(=O)c(-c2cc[nH]n2)cc2c(C)nc(N)nc21` [Voxtalisib], the ΔTm at 12.5 µM on BIKE [2] turned out to be 0.73 °C; on GAK, 0.99 °C; at MPSK1 it was 0.32 °C; on AAK1 [4], 0.657 °C.
Turning to `FC(F)c1nc2ccccc2n1-c1nc(N2CCOCC2)nc(N2CCOCC2)n1` [ZSTK474], the ΔTm at 12.5 µM at BIKE [2] amounted to 0.633 °C; on GAK, 0.02 °C; on MPSK1, 1.24 °C; at AAK1 [4], 0.383 °C.
Regarding `CCS(=O)(=O)N1CC(CC#N)(n2cc(-c3ncnc4[nH]ccc34)cn2)C1` [baricitinib], the ΔTm at 12.5 µM on BIKE [2] came out at 10.2 °C; at GAK, 2.06 °C. Further, on MPSK1 (12.5 µM), the MPSK1 amounted to 4.053 °C. Besides, the AAK1 on AAK1 [4] (12.5 µM) is 8.293 °C.
On to `COC(=O)c1ccc2c(c1)NC(=O)/C2=C(\Nc1ccc(N(C)C(=O)CN2CCN(C)CC2)cc1)c1ccccc1` [nintedanib], for which the ΔTm at 12.5 µM amounted to 7.61 °C on BIKE [2], 0.58 °C at GAK, 6.33 °C on MPSK1 and 1.78 °C on AAK1 [4].

Usually Kd stands for the equilibrium constant for the complex coming apart.
